Source: patent US5675003A, “3-ammoniopropenyl cephalosporin compounds as antibacterial agents” (Korea Institute of Science and Technology, priority 1995, dated 1997)
Values after ≈ are worked out from the molar mass of the structure shown.

What was measured:
Assay in all cases: MIC, in vitro agar dilution method
Type in all cases: cell-based
Escherichia coli DC0 = settings: E.c.2, Escherichia coli DC0
Description: (§1) The MICs of the new cephalosporins of the present invention against Gram-positive and Gram-negative bacteria were determined by an in vitro agar dilution method. For comparisons, the MIC values of ceftazidime are also listed.
(§2) In vitro antimicrobial activity of the cephalosporins (l) (MIC:
E.c.2, Escherichia coli DC0;

Escherichia coli 1507 E = settings: E.c.4, Escherichia coli 1507 E
Description: as §1, §2
E.c.4, Escherichia coli 1507 E;

[1] = test system: Klebsiella oxytoca 1082 E; settings: K.o., Klebsiella oxytoca 1082 E; agar dilution; read-out: MIC
Description: as §1, §2
K.o., Klebsiella oxytoca 1082 E;

Salmonella typhimurium = settings: Salmonella enterica; S.t., Salmonella typhimurium; agar dilution; read-out: MIC
Description: as §1, §2
S.t., Salmonella typhimurium;

[2] = test system: Enterobacter cloacae 1321 E; settings: En.c.2, Enterobacter cloacae 1321 E; agar dilution; read-out: MIC
Description: as §1, §2
En.c.2, Enterobacter cloacae 1321 E.

E.c.5 = settings: Escherichia coli, E.c.5 (strain not defined)
Description: as §1

[3] = test system: Pseudomonas aeruginosa 9027; settings: P.a.1, Pseudomonas aeruginosa 9027; agar dilution; read-out: MIC
Description: as §1, §2
P.a.1, Pseudomonas aeruginosa 9027;

[4] = test system: Enterobacter cloacae P 99; settings: Enterobacter cloacae, P99
Description: as §1, §2
En.c.1, Enterobacter cloacae P 99;

[5] = test system: Staphlococcus aureus SG 511; settings: S.a.1, Staphlococcus aureus SG 511; agar dilution; read-out: MIC
Description: as §1, §2
S.a.1, Staphlococcus aureus SG 511;

[6] = test system: Staphylococcus aureus 503; settings: S.a.3, Staphylococcus aureus 503; agar dilution; read-out: MIC
Description: as §1, §2
S.a.3, Staphylococcus aureus 503;

[7] = test system: Pseudomonas aeruginosa 1592 E; settings: P.a.2, Pseudomonas aeruginosa 1592 E; agar dilution; read-out: MIC
Description: as §1, §2
P.a.2, Pseudomonas aeruginosa 1592 E;

[8] = test system: Streptococcus pyogenes 308 A; settings: S.p.1, Streptococcus pyogenes 308 A; agar dilution; read-out: MIC
Description: as §1, §2
S.p.1, Streptococcus pyogenes 308 A;

Streptococcus faecium MD = settings: Enterococcus faecium; S.f., Streptococcus faecium MD; agar dilution; read-out: MIC
Description: as §1, §2
S.f., Streptococcus faecium MD;

[9] = test system: Pseudomonas aeruginosa 1771 M; settings: P.a.4, Pseudomonas aeruginosa 1771 M; agar dilution; read-out: MIC
Description: as §1, §2
P.a.4, Pseudomonas aeruginosa 1771 M;

[10] = test system: Klebsiella aerogenes 1552 E; settings: K.a., Klebsiella aerogenes 1552 E; agar dilution; read-out: MIC
Description: as §1, §2
K.a., Klebsiella aerogenes 1552 E;

Escherichia coli TEM = settings: E.c.3, Escherichia coli TEM
Description: as §1, §2
E.c.3, Escherichia coli TEM;

[11] = test system: Staphylococcus aureus 285; settings: S.a.2, Staphylococcus aureus 285; agar dilution; read-out: MIC
Description: as §1, §2
E.c. TEM, S.a. 2, Staphylococcus aureus 285;

[12] = test system: Streptococcus pyogenes A 77; settings: A77; S.p.2, Streptococcus pyogenes A 77; agar dilution; read-out: MIC
Description: as §1, §2
S.p.2, Streptococcus pyogenes A 77;

[13] = test system: Pseudomonas eruginosa 1771; settings: P.a.3, Pseudomonas eruginosa 1771
Description: as §1, §2
P.a.3, Pseudomonas eruginosa 1771;

Escherichia coli O55 = settings: E.c.1, Escherichia coli O55
Description: as §1, §2
E.c.1, Escherichia coli O55;

| Compound | MIC (Escherichia coli DC0) | MIC (Escherichia coli 1507 E) | MIC [1] | MIC (Salmonella typhimurium) | MIC [2] | MIC (E.c.5) | MIC [3] | MIC [4] | MIC [5] | MIC [6] | MIC [7] | MIC [8] | MIC (Streptococcus faecium MD) | MIC [9] | MIC [10] | MIC (Escherichia coli TEM) | MIC [11] | MIC [12] | MIC [13] | MIC (Escherichia coli O55) |
| --- | --- | --- | --- | --- | --- | --- | --- | --- | --- | --- | --- | --- | --- | --- | --- | --- | --- | --- | --- | --- |
| CO/N=C(\C(=O)N[C@@H]1C(=O)N2C(C(=O)[O-])=C(/C=C/C[N+]3(C)CC[C@H](O)[C@H](O)C3)CS[C@H]12)c1csc(N)n1 (relative stereo) [1-e, 7β-[2-(2-Aminothiazol-4-yl)-(Z)-2-methoxyiminoacetamido]-3-[(E)-3-(3,4-cis-dihydroxy-1-methyl-1-piperidinio)-1-propen-1-yl]-3-cephem-4-carboxylate] | 0.049 µg/mL (≈ 0.0887 µM) | 0.049 µg/mL (≈ 0.0887 µM) | 3.13 µg/mL (≈ 5.66 µM) | 0.025 µg/mL (≈ 0.0452 µM) | 0.025 µg/mL (≈ 0.0452 µM) | 0.049 µg/mL (≈ 0.0887 µM) | 6.25 µg/mL (≈ 11.3 µM) | 6.25 µg/mL (≈ 11.3 µM) | 0.39 µg/mL (≈ 0.706 µM) | 0.2 µg/mL (≈ 0.362 µM) | 3.13 µg/mL (≈ 5.66 µM) | 0.013 µg/mL (≈ 0.0235 µM) | 50 µg/mL (≈ 90.5 µM) | 0.2 µg/mL (≈ 0.362 µM) | 0.025 µg/mL (≈ 0.0452 µM) | 0.025 µg/mL (≈ 0.0452 µM) | 0.78 µg/mL (≈ 1.41 µM) | 0.013 µg/mL (≈ 0.0235 µM) | 1.56 µg/mL (≈ 2.82 µM) | 0.025 µg/mL (≈ 0.0452 µM) |
| CO/N=C(\C(=O)N[C@@H]1C(=O)N2C(C(=O)[O-])=C(/C=C/C[N+](C)(CCO)CCO)CS[C@H]12)c1csc(N)n1 [1-d] | 0.049 µg/mL (≈ 0.0906 µM) | 0.098 µg/mL (≈ 0.181 µM) | 0.78 µg/mL (≈ 1.44 µM) | 0.025 µg/mL (≈ 0.0462 µM) | 0.013 µg/mL (≈ 0.024 µM) | 0.049 µg/mL (≈ 0.0906 µM) | 3.13 µg/mL (≈ 5.79 µM) | 6.25 µg/mL (≈ 11.6 µM) | 0.39 µg/mL (≈ 0.721 µM) | 0.2 µg/mL (≈ 0.37 µM) | 1.56 µg/mL (≈ 2.89 µM) | 0.013 µg/mL (≈ 0.024 µM) | 50 µg/mL (≈ 92.5 µM) | 0.098 µg/mL (≈ 0.181 µM) | 0.025 µg/mL (≈ 0.0462 µM) | 0.013 µg/mL (≈ 0.024 µM) | 0.78 µg/mL (≈ 1.44 µM) | 0.004 µg/mL (≈ 0.0074 µM) | 0.78 µg/mL (≈ 1.44 µM) | 0.013 µg/mL (≈ 0.024 µM) |
| CO/N=C(\C(=O)N[C@@H]1C(=O)N2C(C(=O)[O-])=C(/C=C/C[N+]3(C)CCC(O)CC3)CS[C@H]12)c1csc(N)n1 (stereo partly drawn) [1-g, 7β-[2-(2-Aminothiazol-4-yl)-(Z)-2-methoxyiminoacetamido]-3-[(E)-3-(4-hydroxy-1-methyl-1-piperidinio)-1-propen-1-yl]-3-cephem-4-carboxylate] | 0.049 µg/mL (≈ 0.0913 µM) | 0.098 µg/mL (≈ 0.183 µM) | 3.13 µg/mL (≈ 5.83 µM) | 0.049 µg/mL (≈ 0.0913 µM) | 0.025 µg/mL (≈ 0.0466 µM) | 0.049 µg/mL (≈ 0.0913 µM) | 6.25 µg/mL (≈ 11.6 µM) | 3.13 µg/mL (≈ 5.83 µM) | 0.39 µg/mL (≈ 0.727 µM) | 0.2 µg/mL (≈ 0.373 µM) | 3.13 µg/mL (≈ 5.83 µM) | 0.013 µg/mL (≈ 0.0242 µM) | 50 µg/mL (≈ 93.2 µM) | 0.2 µg/mL (≈ 0.373 µM) | 0.025 µg/mL (≈ 0.0466 µM) | 0.049 µg/mL (≈ 0.0913 µM) | 0.78 µg/mL (≈ 1.45 µM) | 0.013 µg/mL (≈ 0.0242 µM) | 1.56 µg/mL (≈ 2.91 µM) | 0.025 µg/mL (≈ 0.0466 µM) |
| CO/N=C(\C(=O)N[C@@H]1C(=O)N2C(C(=O)[O-])=C(/C=C/C[N+]3(C)C[C@H](O)[C@@H](O)C3)CS[C@H]12)c1csc(N)n1 [1-b, 7β-[2-(2-Aminothiazol-4-yl)-(Z)-2-methoxyiminoacetamido]-3-[(E)-3-(3S,4S-dihydroxy-1-methyl-1-pyrrolidinio)-1-propen-1-yl]-3-cephem-4-carboxylate] | 0.049 µg/mL (≈ 0.091 µM) | 0.049 µg/mL (≈ 0.091 µM) | 0.78 µg/mL (≈ 1.45 µM) | 0.025 µg/mL (≈ 0.0464 µM) | 0.013 µg/mL (≈ 0.0241 µM) | 0.049 µg/mL (≈ 0.091 µM) | 3.13 µg/mL (≈ 5.81 µM) | 3.13 µg/mL (≈ 5.81 µM) | 0.39 µg/mL (≈ 0.724 µM) | 0.2 µg/mL (≈ 0.371 µM) | 1.56 µg/mL (≈ 2.9 µM) | 0.013 µg/mL (≈ 0.0241 µM) | 50 µg/mL (≈ 92.8 µM) | 0.098 µg/mL (≈ 0.182 µM) | 0.025 µg/mL (≈ 0.0464 µM) | 0.025 µg/mL (≈ 0.0464 µM) | 0.78 µg/mL (≈ 1.45 µM) | 0.007 µg/mL (≈ 0.013 µM) | 1.56 µg/mL (≈ 2.9 µM) | 0.025 µg/mL (≈ 0.0464 µM) |
